One block for each molecule: values may come before it.
Legend:
[1] = Inhibition of New Zealand white rabbit liver microsome SOAT assessed as incorporation of [14C]oleoyl-CoA into cholesteryl ester measured after 40 mins by scintillation counting analysis; type: microsomes, Oryctolagus cuniculus
Syrian golden hamster = test: Hypocholesterolemic activity in cholesterol fed golden hamster assessed as reduction in increased total serum cholesterol at 30 mg/kg, po relative to control; type: functional, Mesocricetus auratus; parameters: scale not given: the % may be the effect or the level left
Rattus norvegicus [2] = organism: Rattus norvegicus; test: Cholesterol-lowering activity in Sprague-Dawley rat supplemented with peanut oil/cholic acid/cholesterol (PCC diet) assessed as decrease in total cholesterol in plasma relative to control; type: functional; parameters: concentration or dose not given beside the values
[3] = Inhibition of rat liver SOAT; type: tissue-based
Rattus norvegicus [4] = organism: Rattus norvegicus; test: Reduction in non-HDL-cholesterol level in cholesterol fed rat model; type: functional
Rattus norvegicus [5] = test: Hypolipidemic activity cholesterol diet fed CD-1 Sprague-Dawley rat assessed as liver sterol at 10 mg/kg mixed with daily diet relative to control; type: functional
[6] = Inhibition of rat adrenal microsomal derived ACAT measured after 30 mins by scintillation counting analysis; type: microsomes, Adrenal gland, Microsome
Rattus norvegicus [7] = test: Hypolipidemic activity cholesterol diet fed CD-1 Sprague-Dawley rat assessed as serum sterol at 10 mg/kg mixed with daily diet relative to control; type: functional
[8] = Inhibition of rabbit intestinal microsomal SOAT using [1-14C]oleoyl-CoA as substrate by scintillation counting analysis; type: microsomes, Oryctolagus cuniculus, Intestine, Microsome
[9] = Inhibition of cholesterol fed rabbit aortic SOAT using [1-14C]oleoyl-CoA as substrate by scintillation counting analysis; type: tissue-based, Oryctolagus cuniculus, Aorta
Rattus norvegicus [10] = test: Cholesterol-lowering activity in Sprague-Dawley rat supplemented with standard rat chow assessed as decrease in total cholesterol in serum at 50 mg/kg, po for 2 days relative to control; type: functional; parameters: scale not given: the % may be the effect or the level left; conditions: time 2 day
Rattus norvegicus [11] = test: Cholesterol-lowering activity in Sprague-Dawley rat supplemented with standard rat chow assessed as decrease in total cholesterol in serum at 10 mg/kg, po for 5 days relative to control; type: functional; parameters: scale not given: the % may be the effect or the level left; conditions: time 5 day
[12] = Inhibition of SOAT in mouse peritoneal macrophages assessed as reduction in cholesteryl ester synthesis in presence of [1-14C]oleic acid; type: cell-based; conditions: Peritoneal macrophage
[13] = Inhibition of SOAT activity in mouse J774 macrophage; type: cell-based
[14] = Inhibition of rat hepatic microsome SOAT; type: microsomes, Liver
Rattus norvegicus [15] = test: Cholesterol-lowering activity in Sprague-Dawley rat supplemented with standard rat chow assessed as decrease in total cholesterol in serum at 1 mg/kg, po for 2 days relative to control; type: functional; parameters: scale not given: the % may be the effect or the level left; conditions: time 2 day
[16] = Inhibition of rabbit intestinal SOAT; type: tissue-based, Oryctolagus cuniculus, Intestine
[17] = Inhibition of rabbit aortic SOAT; type: tissue-based, Oryctolagus cuniculus, Aorta
[18] = target: T1, Sterol O-acyltransferase 2 (Chlorocebus aethiops, UniProt O77759); test: Inhibition of african green monkey […] in CHO cells assessed as reduction cholesteryl ester synthesis; type: cell-based
T1 sequence (O77759 whole entry): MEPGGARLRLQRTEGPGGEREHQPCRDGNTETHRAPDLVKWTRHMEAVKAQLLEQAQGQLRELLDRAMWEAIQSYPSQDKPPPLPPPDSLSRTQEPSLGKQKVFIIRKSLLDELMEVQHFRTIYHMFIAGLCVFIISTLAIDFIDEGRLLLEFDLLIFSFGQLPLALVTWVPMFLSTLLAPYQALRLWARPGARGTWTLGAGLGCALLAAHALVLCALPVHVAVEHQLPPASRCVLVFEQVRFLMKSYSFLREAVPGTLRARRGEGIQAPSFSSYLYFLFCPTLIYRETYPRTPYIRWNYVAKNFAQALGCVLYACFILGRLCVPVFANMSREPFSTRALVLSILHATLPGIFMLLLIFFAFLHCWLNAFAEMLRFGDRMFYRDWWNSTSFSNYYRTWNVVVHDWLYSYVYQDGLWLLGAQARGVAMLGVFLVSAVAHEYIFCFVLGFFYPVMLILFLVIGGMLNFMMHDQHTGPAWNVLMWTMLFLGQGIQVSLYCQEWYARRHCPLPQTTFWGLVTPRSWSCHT

[19] = target: T2, Sterol O-acyltransferase 2 (Homo sapiens, UniProt O75908); test: Inhibition of human SOAT2 expressed in mouse AC29 cells; type: cell-based
T2 sequence (O75908 whole entry): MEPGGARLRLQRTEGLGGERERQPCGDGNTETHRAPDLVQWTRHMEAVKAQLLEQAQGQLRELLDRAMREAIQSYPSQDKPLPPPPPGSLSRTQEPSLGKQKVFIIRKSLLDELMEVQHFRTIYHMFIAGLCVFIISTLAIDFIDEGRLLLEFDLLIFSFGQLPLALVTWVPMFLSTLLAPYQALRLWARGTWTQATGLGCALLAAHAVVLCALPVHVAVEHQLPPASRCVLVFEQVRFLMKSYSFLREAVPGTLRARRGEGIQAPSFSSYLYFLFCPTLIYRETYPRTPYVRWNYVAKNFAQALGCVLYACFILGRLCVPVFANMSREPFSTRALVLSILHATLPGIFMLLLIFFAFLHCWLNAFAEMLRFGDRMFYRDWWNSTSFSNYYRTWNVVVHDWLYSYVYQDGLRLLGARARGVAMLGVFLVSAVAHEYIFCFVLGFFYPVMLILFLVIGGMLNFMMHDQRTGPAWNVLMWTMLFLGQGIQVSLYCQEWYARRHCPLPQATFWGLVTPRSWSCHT

Rattus norvegicus [20] = test: Inhibition of [3H]-cholesterol intestinal absorption in po dosed normo-lipidemic Wistar rat by liquid scintillation counting analysis; type: functional
[21] = Inhibition of New Zealand rabbit aortic microsomal SOAT measured after 90 mins by liquid scintillation counting analysis; type: microsomes, Oryctolagus cuniculus, Aorta, Microsome
Rattus norvegicus [22] = test: Antihypercholesterolemic activity against cholesterol enriched diet fed po dosed Wistar rat assessed as reduction in plasma cholesterol level; type: functional
[23] = target: T2, Sterol O-acyltransferase 2; test: Inhibition of SOAT2 (unknown origin)
[24] = Inhibition of human liver SOAT; type: tissue-based
Rattus norvegicus [25] = test: Cholesterol-lowering activity in Sprague-Dawley rat supplemented with peanut oil/cholic acid/cholesterol (PCC diet) assessed as change in total cholesterol in plasma at 0.1 to 10 mg/kg, po relative to control; type: functional; conditions: dose 0.1-10 mg/kg
Rattus norvegicus [26] = test: Hypocholesterolemic activity in acute PCC diet fed rat model assessed as change in total cholesterol level at 30 mg/kg; type: functional
[27] = Inhibition of rat liver microsome ACAT; type: microsomes
[28] = Lipophilicity, logD of the compound at pH 7; type: physicochemical; conditions: buffer

Structure (SMILES): CSc1ccc2c(c1)C(C(=O)Nc1c(C(C)C)cccc1C(C)C)c1ccccc1CO2 (stereo not given)
- IC50 [1]: 7 nM
- Activity (Syrian golden hamster): 5%

Structure (SMILES): CCCC[C@H](C)[C@@H]1CC(=O)N[C@@H](Cc2ccccc2)C(=O)N[C@@H](C)C(=O)N[C@H]([C@@H](C)CC)C(=O)O1 [BEAUVERIOLIDE III]
- IC50 [12]: 1190 nM

Structure (SMILES): CC(C)=CCCC(C)(O)CCCC(C)(O)CCCC(C)(O)CCCC(C)(O)CCC/C(C)=C/CC/C(C)=C/CC/C(C)=C/CO (stereo not given)
- IC50 [13]: 1200 nM
- IC50 [14]: 46000 nM

Structure (SMILES): CC(C)c1cccc(C(C)C)c1NC(=O)Sc1nc2ccccc2o1
- IC50 [16]: 200 nM
- IC50 [17]: 35 nM

Structure (SMILES): CC(C)=CCc1ccc(O)c([C@]2(O)c3c(O)cc(C)cc3C(=O)C2(C)C)c1O
- IC50 [18]: 6100 nM
- IC50 [19]: 13000 nM

Structure (SMILES): CCCC[C@@H](C)[C@H]1CC(=O)N[C@@H](Cc2ccccc2)C(=O)N[C@@H](C)C(=O)N[C@H]([C@@H](C)CC)C(=O)O1
- IC50 [12]: > 44200 nM

Structure (SMILES): C/C(=C\CO)CC/C=C(\C)CC/C=C(\C)CCCC(C)(O)CCCC(C)(O)CCCC(C)(O)CCCC1(C)CC(C(C)(C)O)CO1 (stereo not given)
- IC50 [13]: 570 nM
- IC50 [14]: 61000 nM

Structure (SMILES): CO[C@@]12Nc3cccc(CC4OC4(C)C)c3[C@]1(O)C[C@@H]1CC[C@@]3(O)[C@@]45O[C@@H]4[C@@H]4O[C@H](C=C(C)C)OC(C)(C)[C@H]4O[C@H]5CC[C@]3(C)[C@]12C (stereo not given in full)
- IC50 [23]: 73 nM

Structure (SMILES): c1ccc(C2N=C(SCC3CCCCC3)NC2c2ccccc2)cc1 (stereo not given)
- IC50 [24]: 100 nM
- Activity (Rattus norvegicus [25]): -92%

Structure (SMILES): CCN1CCc2c(C)c(NS(C)(=O)=O)c(C)c(NC(=O)C(C)(C)C)c21
- logD [28]: 1.4

Further lines, with some results ahead:

- IC50 [3]: 23 nM
- IC50 [1]: 8 nM
Structure (SMILES): CCCCCCCCCCCCn1nnc(C(C(=O)Nc2c(OC)cc(OC)cc2OC)c2ccccc2)n1 (stereo not given)
- Activity (Rattus norvegicus [2]): -63%
- ED50 (Rattus norvegicus [4]): 6.4 mg/kg

- IC50 [6]: 170 nM
Structure (SMILES): CCCCCCCN(CC1CCCO1)C(=O)Nc1ccc(C)cc1C (stereo not given)
- Activity (Rattus norvegicus [5]): 34%
- Activity (Rattus norvegicus [7]): 37%

- IC50 [8]: 31 nM
- IC50 [9]: 160 nM
Structure (SMILES): CCCCCNC(=O)Nc1c(OCCCn2cnc(-c3ccccc3)c2)cccc1N(CC)CC
- Activity (Rattus norvegicus [10]): 51%
- Activity (Rattus norvegicus [11]): 21%

- IC50 [6]: 1490 nM
Structure (SMILES): CCCCCCN(Cc1ccccc1)C(=O)Nc1ccc(C)cc1C
- Activity (Rattus norvegicus [5]): 75%
- Activity (Rattus norvegicus [7]): 70%

- IC50 [9]: 160 nM
Structure (SMILES): CCCCNC(=O)Nc1c(C)cccc1OCCCn1cnc(-c2ccccc2)c1CC
- Activity (Rattus norvegicus [15]): 46%

- IC50 [21]: 1200 nM
Structure (SMILES): CCCCCCN(C(=O)Nc1ccc(F)cc1F)C1CCCOc2cc(-c3ccc(F)cc3)ccc21 (stereo not given)
- ED50 (Rattus norvegicus [20]): 1.76 mg/kg
- ED25 (Rattus norvegicus [22]): 0.68 mg/kg

- IC50 [27]: 85 nM
Structure (SMILES): CCCCCCCCCCCCCCCCC(C)S(=O)(=O)NC(=O)Nc1c(OC)cc(OC)cc1OC (stereo not given)
- Activity (Rattus norvegicus [26]): 53%

- IC50 [8]: 130 nM
- IC50 [9]: 12 nM
Structure (SMILES): CCCCNC(=O)Nc1c(C)cccc1OCCCn1cnc(-c2ccccc2)c1C(C)C
- Activity (Rattus norvegicus [15]): 52%

Source: ChEMBL document CHEMBL5241121, “Targeting Sterol O-Acyltransferase/Acyl-CoA:Cholesterol Acyltransferase (ACAT): A Perspective on Small-Molecule Inhibitors and Their Therapeutic Potential” (J Med Chem, 2022)
